Read-outs that look alike come from different tables or passages of the source. Residues, ends and D or L forms follow the SMILES beside them.
Assays:
DP IV [1] = experiment: Determination of the half-life (t1/2) of DP IV-catalyzed peptide truncation by MALDI-TOF MS; conditions: truncation by DP IV
Experimental: (§1) The degradation fate of peptides was measured by monitoring the signal intensity of the pseudomolecular ion peaks of parent peptides and N-terminal shorted peptides versus time when incubated with 40 mU procine DP IV, recombinant human DP IV or serum DP IV activity. […] As control served the preincubation of DP IV with 0.01M Tris-buffer (Sigma-Aldrich, Deisenhofen, Germany). The mass spectrometer employed was a Hewlett-Packard G2025 model with a linear time of flight analyzer; samples (4 μL) were mixed 1:1 v/v with matrix (44 mg diammonium-hydrogen-citrate and 30 mg 2′,6′-dihydroxyacetophenone in 1 ml aqueous solution containing 50% acetonitrile and 0.05% trifluoroacetic acid; Sigma-Aldrich), transferred to a probe tip and immediately evaporated using the Hewlett-Packard G2024A (Hewlett-Packard, Waldbronn, Germany) sample preparation vacuum chamber. 250 single laser-shot spectra were accumulated. This method of monitoring biodegradation has been validated and allows the general comparison of half-degradation times (t1/2) under various conditions.
(§2) The t1/2-calculation followed this procedure:
(§3) The height of the substrate peak was measured and set as 100% at time=0. During the reaction course the sum of substrate and product peak height were set as 100% and the percentage of the remaining substrate peak (also expressed as relative concentration) was determined. Diagrammed relative substrate concentration versus time t1/2 can be calculated based on first order exponential decay reaction course. [formula]

[2] = as above
Experimental: as §1, §2, §3

DP IV [3] = experiment: Peptide truncation by DP IV after preincubation with TFTSDY (MALDI-TOF); type: biochemical
Experimental: (§4) 250 single laser-shot spectra were accumulated.
(§5) In order to investigate directly the influence of TFTSDY on the DP IV-catalyzed peptide hydrolysis the MALDI-TOF assay was used.
(§6) As described before (determination of t1/2) DP IV and TFTSDY were preincubated and the reaction was started by adding the enzyme/hexapeptide mixture to substrate/buffer mix. The control reaction mixture consisted of buffer, enzyme and substrate. From the curves of the first order exponential the initial rate (v1) for the control and the reversible inhibited reaction was calculated.

rec. human DP IV = target: T1, rec. human DP IV (Homo sapiens, UniProt P27487); experiment: MALDI-TOF approach: Ki of TFTSDY on DP IV-catalyzed peptide truncation; type: biochemical; conditions: K1, inhibitory effect on DP IV-catalyzed peptide truncation
T1 construct: His6 (N); made in house; host or cells: Pichia pastoris X-33 (vector pPICαC, secreted into the medium)
T1 sequence (P27487 37-766): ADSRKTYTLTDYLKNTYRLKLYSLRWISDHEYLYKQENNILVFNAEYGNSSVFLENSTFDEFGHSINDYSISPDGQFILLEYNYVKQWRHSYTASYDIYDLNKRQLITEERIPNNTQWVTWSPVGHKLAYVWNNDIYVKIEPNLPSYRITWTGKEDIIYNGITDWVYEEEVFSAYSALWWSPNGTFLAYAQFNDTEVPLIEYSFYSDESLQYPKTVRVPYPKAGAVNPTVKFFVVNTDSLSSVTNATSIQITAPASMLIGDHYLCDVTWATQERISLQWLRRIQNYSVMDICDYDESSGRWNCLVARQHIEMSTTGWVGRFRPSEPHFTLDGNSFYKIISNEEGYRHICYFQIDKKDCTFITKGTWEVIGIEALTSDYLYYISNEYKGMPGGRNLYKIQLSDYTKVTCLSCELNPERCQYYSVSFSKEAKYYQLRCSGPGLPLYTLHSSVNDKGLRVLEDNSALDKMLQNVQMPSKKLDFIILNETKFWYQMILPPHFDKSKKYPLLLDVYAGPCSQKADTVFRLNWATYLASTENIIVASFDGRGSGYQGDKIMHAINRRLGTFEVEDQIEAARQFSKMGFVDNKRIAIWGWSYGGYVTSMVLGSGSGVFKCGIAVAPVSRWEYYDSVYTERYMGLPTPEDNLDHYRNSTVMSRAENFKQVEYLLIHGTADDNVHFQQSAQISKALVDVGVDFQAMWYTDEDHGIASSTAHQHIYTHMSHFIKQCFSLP
Experimental: as §4, §5, §6
(§7) For the uninfluenced reaction the Michaelis-Menten-equation was used.
(§8) Vi was calculated from plotting the relative substrate concentration versus time.
(§9) Km is given, also the substrate concentration. [formula]
(§10) For the reversible inhibited reaction the following reaction was used to calculate Kl: [formula]

porcine DP IV = target: T2, porcine DP IV (Sus scrofa, UniProt P22411); experiment: as above; type: biochemical; conditions: K1, inhibitory effect on DP IV-catalyzed peptide truncation
T2 construct: purified DP IV from human, from porcine kidney, of recombinant human DP IV; from tissue; host or cells: porcine kidney
T2 sequence (P22411 whole entry, the tested form may be a part): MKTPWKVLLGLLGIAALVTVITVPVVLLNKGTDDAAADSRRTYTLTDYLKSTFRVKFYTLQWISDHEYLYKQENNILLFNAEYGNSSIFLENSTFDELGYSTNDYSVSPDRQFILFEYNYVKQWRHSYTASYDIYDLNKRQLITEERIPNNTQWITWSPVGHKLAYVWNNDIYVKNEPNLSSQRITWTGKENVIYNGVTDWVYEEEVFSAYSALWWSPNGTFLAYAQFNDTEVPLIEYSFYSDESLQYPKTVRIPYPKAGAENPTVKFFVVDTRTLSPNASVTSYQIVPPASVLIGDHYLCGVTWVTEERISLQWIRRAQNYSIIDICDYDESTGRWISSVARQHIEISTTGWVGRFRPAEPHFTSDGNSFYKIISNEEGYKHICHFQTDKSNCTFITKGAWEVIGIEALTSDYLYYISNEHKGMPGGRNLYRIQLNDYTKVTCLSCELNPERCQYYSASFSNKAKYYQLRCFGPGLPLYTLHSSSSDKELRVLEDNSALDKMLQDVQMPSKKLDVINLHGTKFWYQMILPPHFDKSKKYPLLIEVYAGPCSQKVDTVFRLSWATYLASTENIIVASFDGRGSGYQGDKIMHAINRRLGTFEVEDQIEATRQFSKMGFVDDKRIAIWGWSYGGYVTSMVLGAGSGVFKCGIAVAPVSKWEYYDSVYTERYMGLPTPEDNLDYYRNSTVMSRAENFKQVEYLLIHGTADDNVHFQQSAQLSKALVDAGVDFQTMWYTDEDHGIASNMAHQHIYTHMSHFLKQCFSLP
Experimental: as §4, §5, §6, §7, §8, §9, §10

[4] = target: T3, mu 16: recombinant human DP IV, mutation W629A (Homo sapiens, UniProt P27487, W629A); experiment: Determination of Ki in competition to standard substrate GP-4NA; type: biochemical; conditions: mu 16 DP IV, competition to GP-4NA
T3 construct: His6 (N); made in house; host or cells: Pichia pastoris X-33 (vector pPICαC, secreted into the medium)
T3 sequence (P27487 37-766 W629A): as the sequence (P27487 37-766) above, with W593A counted along it
Experimental: (§11) In order to measure the inhibition constant Ki a photometric assay was used The peptides were measured as competitors of the standard substrate GP-4-Nitroanilide. Three different substrate concentrations (0.4 mM to 0.05 mM) were combined with 8 different competitor concentrations (0.5 mM to 2 μM). […] Experiments were carried out under standard conditions: 30° C. in pH 7.6 40 mM HEPES (Sigma-Aldrich) buffer. Nitroaniline production was monitored using a HTS 7000+ microplate reader (PerkinElmer, Überlingen, Germany).
(§12) For a reversible competitive inhibition is to assumed: [formula]

[5] = target: T4, mu 15: recombinant human DP IV, mutation R560A (Homo sapiens, UniProt P27487, R560A); experiment: as above; type: biochemical; conditions: mu 15 DP IV, competition to GP-4NA
T4 construct: His6 (N); made in house; host or cells: Pichia pastoris X-33 (vector pPICαC, secreted into the medium)
T4 sequence (P27487 37-766 R560A): as the sequence (P27487 37-766) above, with R524A counted along it
Experimental: as §11, §12

[6] = target: T5, rh wt: recombinant human DP IV, wild type (Homo sapiens, UniProt P27487); experiment: as above; type: biochemical; conditions: competition to GP-4NA
T5 construct: His6 (N); made in house; host or cells: Pichia pastoris X-33 (vector pPICαC, secreted into the medium)
T5 sequence (P27487 37-766): as the sequence (P27487 37-766) above
Experimental: as §11, §12

C[C@@H](O)[C@H](NC(=O)CNC(=O)[C@H](CCC(=O)O)NC(=O)CNC(=O)[C@@H](N)Cc1ccc(O)cc1)C(=O)N[C@@H](Cc1ccccc1)C(=O)O [G^2GIP1-6] (H-YGEGTF-OH)
half-life (DP IV [1]): no degradation

CC[C@H](C)[C@H](NC(=O)[C@H](CO)NC(=O)[C@H](Cc1ccc(O)cc1)NC(=O)[C@H](CC(=O)O)NC(=O)[C@H](CO)NC(=O)[C@@H](NC(=O)[C@H](Cc1ccccc1)NC(=O)[C@@H](NC(=O)CNC(=O)[C@H](CCC(=O)O)NC(=O)CNC(=O)[C@@H](N)Cc1ccc(O)cc1)[C@@H](C)O)[C@@H](C)CC)C(=O)N[C@@H](C)C(=O)N[C@@H](CCSC)C(=O)N[C@@H](CC(=O)O)C(=O)N[C@@H](CCCCN)C(=O)N[C@H](C(=O)N[C@@H](Cc1c[nH]cn1)C(=O)N[C@@H](CCC(N)=O)C(=O)N[C@@H](CCC(N)=O)C(=O)N[C@@H](CC(=O)O)C(=O)N[C@@H](Cc1ccccc1)C(=O)N[C@H](C(=O)N[C@@H](CC(N)=O)C(=O)N[C@@H](Cc1c[nH]c2ccccc12)C(=O)N[C@@H](CC(C)C)C(=O)N[C@@H](CC(C)C)C(=O)N[C@@H](C)C(=O)N[C@@H](CCC(N)=O)C(=O)N[C@@H](CCCCN)C(=O)O)C(C)C)[C@@H](C)CC [G^2GIP1-30]
half-life [2]: 2.5 h

CC[C@H](C)[C@H](NC(=O)[C@H](CO)NC(=O)[C@H](Cc1ccc(O)cc1)NC(=O)[C@H](CC(=O)O)NC(=O)[C@H](CO)NC(=O)[C@@H](NC(=O)[C@H](Cc1ccccc1)NC(=O)[C@@H](NC(=O)CNC(=O)[C@H](CCC(=O)O)NC(=O)[C@H](CO)NC(=O)[C@@H](N)Cc1ccc(O)cc1)[C@@H](C)O)[C@@H](C)CC)C(=O)N[C@@H](C)C(=O)N[C@@H](CCSC)C(=O)N[C@@H](CC(=O)O)C(=O)N[C@@H](CCCCN)C(=O)N[C@H](C(=O)N[C@@H](Cc1c[nH]cn1)C(=O)N[C@@H](CCC(N)=O)C(=O)N[C@@H](CCC(N)=O)C(=O)N[C@@H](CC(=O)O)C(=O)N[C@@H](Cc1ccccc1)C(=O)N[C@H](C(=O)N[C@@H](CC(N)=O)C(=O)N[C@@H](Cc1c[nH]c2ccccc12)C(=O)N[C@@H](CC(C)C)C(=O)N[C@@H](CC(C)C)C(=O)N[C@@H](C)C(=O)N[C@@H](CCC(N)=O)C(=O)N[C@@H](CCCCN)C(=O)O)C(C)C)[C@@H](C)CC [S^2GIP1-30]
half-life [2]: 2.29 h

C[C@@H](O)[C@H](N)C(=O)N[C@@H](Cc1ccccc1)C(=O)N[C@H](C(=O)N[C@@H](CO)C(=O)N[C@@H](CC(=O)O)C(=O)N[C@@H](Cc1ccc(O)cc1)C(=O)O)[C@@H](C)O [TFTSDY] (H-TFTSDY-OH; N-terminus and C-terminus assumed)
influence on affinity of oligopeptides such as GIP, VIP, glucagon (DP IV [3]; DP IV preincubated with TFTSDY): considerably reduced
influence on binding and hydrolysis of small dipeptide substrates (DP IV [3]; DP IV preincubated with TFTSDY): only slightly influenced
effect on truncation of substrate by DP IV (DP IV [3]; substrate Rantes1-15, 160 μM TFTSDY): No differences
Ki (rec. human DP IV; substrate GIP): 14 µM
Ki (rec. human DP IV; substrate PACAP-27): 26.7 µM
Ki (rec. human DP IV; substrate PACAP-38): 2.8 µM
Ki (rec. human DP IV; substrate glucagon): 3.7 µM
Ki (porcine DP IV; substrate GIP): 65.9 µM
Ki (porcine DP IV; substrate GLP-1): 13.7 µM
Ki (porcine DP IV; substrate NPY): 17.2 µM
Ki (porcine DP IV; substrate RANTES1-15): ≥ 12300 µM
Ki (porcine DP IV; substrate glucagon): 6.8 µM

CC(C)[C@H](NC(=O)[C@@H](N)Cc1ccc(O)cc1)C(=O)N[C@@H](CCC(=O)O)C(=O)NCC(=O)N[C@H](C(=O)N[C@@H](Cc1ccccc1)C(=O)O)[C@@H](C)O [V^2GIP1-6] (H-YVEGTF-OH)
half-life (DP IV [1]): no degradation

CC[C@H](C)[C@H](NC(=O)[C@H](CO)NC(=O)[C@H](Cc1ccc(O)cc1)NC(=O)[C@H](CC(=O)O)NC(=O)[C@H](CO)NC(=O)[C@@H](NC(=O)[C@H](Cc1ccccc1)NC(=O)[C@@H](NC(=O)CNC(=O)[C@H](CCC(=O)O)NC(=O)[C@@H](NC(=O)[C@@H](N)Cc1ccc(O)cc1)C(C)C)[C@@H](C)O)[C@@H](C)CC)C(=O)N[C@@H](C)C(=O)N[C@@H](CCSC)C(=O)N[C@@H](CC(=O)O)C(=O)N[C@@H](CCCCN)C(=O)N[C@H](C(=O)N[C@@H](Cc1c[nH]cn1)C(=O)N[C@@H](CCC(N)=O)C(=O)N[C@@H](CCC(N)=O)C(=O)N[C@@H](CC(=O)O)C(=O)N[C@@H](Cc1ccccc1)C(=O)N[C@H](C(=O)N[C@@H](CC(N)=O)C(=O)N[C@@H](Cc1c[nH]c2ccccc12)C(=O)N[C@@H](CC(C)C)C(=O)N[C@@H](CC(C)C)C(=O)N[C@@H](C)C(=O)N[C@@H](CCC(N)=O)C(=O)N[C@@H](CCCCN)C(=O)O)C(C)C)[C@@H](C)CC [V^2GIP1-30]
half-life [2]: 4.97 h

C[C@H](NC(=O)[C@@H](N)Cc1ccc(O)cc1)C(=O)N[C@@H](CCC(=O)O)C(=O)N[C@@H](CO)C(=O)N[C@H](C(=O)N[C@@H](Cc1ccccc1)C(N)=O)[C@@H](C)O [YAESTF amide] (H-YAESTF-NH2; N-terminus assumed)
Ki ([4]; read-out: Ki): 1.06 µM
Ki ([5]; read-out: Ki): 1.14 µM

Glucagon (1-14): glucagon fragment 1-14 (HSQGTFTSDYSKYL; Glucagon; UniProt P01275 53-66, looked up, fragment) [reference compound]
Ki [4]: no inhibition
Ki [5]: no inhibition
Ki [6]: no inhibition
